The text below walks through data of patent publication US11505784B2, “Cell culture medium” (BOEHRINGER INGELHEIM INTERNATIONAL GMBH, priority 2015, dated 2022).

Experiment [1] has as its system CHO2 (CHO-DG44) cells producing Rituximab. Conditions: for product titer: feed medium 2 with 0.25 g/l iron citrate.
Description: Cell concentrations and cell viabilities were determined by the trypan blue exclusion method using a CEDEX (Type 5.00, version 2.2) automated cell analyzer (Roche Innovatis, Bielefeld, Germany). The concentrations of produced recombinant proteins in the medium, such as IgG antibodies were quantified by a Konelab 60i (Thermo Scientific, Dreieich, Germany) analyzer based on photometrical methods or by the use of a HPLC method. The Konelab 60i instrument was also used for the quantification of metabolites such as glucose, lactic acid (lactate), glutamine, glutamate, and ammonium in the cell culture supernatants. Amino acid concentrations were determined by use of a GC 6890N/FID gas chromatograph (Agilent Technologies GmbH & Co.KG, Waldbronn, Germany). Amino acid analysis was performed by the EZ-faast protocol from Phenomenex (Aschaffenburg, Germany). Osmolarity profiles were analyzed by an osmomat auto device (Gonotec GmbH, Berlin, Germany). This method is based on the cryoscopic freezing point of a particular solution, which is proportional to the amount of dissolved particles. Dissolved carbon dioxide pCO2, dissolved oxygen pO2 and pH were determined on a daily basis with a Rapidlab 248/348 instrument (Siemens Healthcare Diagnostics GmbH, Eschborn, Germany).
The experiment was performed in 250 ml shake flasks with a starting volume of 60 ml.
Shake flasks were incubated at 37° C. in an incubator (10% CO2 atmosphere was provided from day 0 to 3 followed by 5% CO2 for one day and 0% CO2 until the end of the cultivation). Feeding solution was added every day at a feed rate of 30 ml/L/d starting on day two. Glucose was fed on demand to maintain the actual glucose concentration between 2-4 g/l over the cultivation period. Total cells, viable cells, viability, product concentration, glucose concentration, lactic acid concentration, ammonium concentration and osmolarity were measured every second day until the end of cultivation to monitor and control the experimental progress. Experiments were performed in duplicates (N=2).
The test system is the same in experiment [2]. Briefly: Fed-batch shake flask comparison of iron carriers in basal medium 6.2a (Example 7). The experiment is classed as cell-based, Chinese hamster. As to the method: Basal medium 6.2a is a precursor medium that is almost identical to basal medium 6.2 except for additionally comprising some non-essential cofactors and nucleotides and containing no succinic acid, putrescine at only 4.8 mg/l and a total amino acid concentration of 40 mM instead of 44 mM. Further Glutamine was added at a lower amount resulting in a ratio relative to isoleucine of 37.42.
Feed medium 6.2a is a precursor medium that is almost identical to feed medium 6.2 except for additionally comprising some non-essential cofactors and nucleotides and slightly higher sodium bicarbonate and containing putrescine at only 33.02 mg/l and a total amino acid concentration of 511 mM instead of 508 mM. Further alanine was additionally present in the medium with a ratio relative to isoleucine of 0.15.
Experiments were performed in duplicates (N=2).

Experiment [3] concerns CHO2 (CHO-DG44) Rituximab cells. The note with it: 0.1 g/l (so in the source) in RPMI based basal medium 3.1; feed medium 2 with 0.25 g/l iron citrate; 2 L bioreactor.
Description: Cell concentrations and cell viabilities were determined by the trypan blue exclusion method using a CEDEX (Type 5.00, version 2.2) automated cell analyzer (Roche Innovatis, Bielefeld, Germany). The concentrations of produced recombinant proteins in the medium, such as IgG antibodies were quantified by a Konelab 60i (Thermo Scientific, Dreieich, Germany) analyzer based on photometrical methods or by the use of a HPLC method. The Konelab 60i instrument was also used for the quantification of metabolites such as glucose, lactic acid (lactate), glutamine, glutamate, and ammonium in the cell culture supernatants. Amino acid concentrations were determined by use of a GC 6890N/FID gas chromatograph (Agilent Technologies GmbH & Co.KG, Waldbronn, Germany). Amino acid analysis was performed by the EZ-faast protocol from Phenomenex (Aschaffenburg, Germany). Osmolarity profiles were analyzed by an osmomat auto device (Gonotec GmbH, Berlin, Germany). This method is based on the cryoscopic freezing point of a particular solution, which is proportional to the amount of dissolved particles. Dissolved carbon dioxide pCO2, dissolved oxygen pO2 and pH were determined on a daily basis with a Rapidlab 248/348 instrument (Siemens Healthcare Diagnostics GmbH, Eschborn, Germany). […]

Read-outs that look alike come from different tables or passages of the source.

`C[N+](C)(C)CCO.O=C([O-])CC(O)(CC(=O)[O-])C(=O)[O-].[Fe+2]` [iron choline citrate]: the “osmolarity of the culture compared to equimolar iron citrate (in words)” value in experiment [1] (equimolar application, data not shown) is “lower osmolarity values”.

`O=P([O-])([O-])[O-].[Fe+3]` [iron phosphate] gave a product titer in experiment [2] (iron carrier 0.3 g/L in basal medium 6.2a, feed medium 6.2a without iron choline citrate) of 2.29 g/L.

Turning to `O=P([O-])([O-])OP(=O)([O-])[O-].O=P([O-])([O-])OP(=O)([O-])[O-].O=P([O-])([O-])OP(=O)([O-])[O-].[Fe+3].[Fe+3].[Fe+3].[Fe+3]` [iron pyro phosphate], in experiment [2] (iron carrier 1.3 g/L in basal medium 6.2a, feed medium 6.2a without iron choline citrate), the product titer was determined as 2.26 g/L.

Regarding iron citrate, the product titer in experiment [2] (parallel experiment: 0.1 g/L in basal medium 6.2a, feed medium 6.2a with 0.25 g/l iron citrate) is recorded as 2.38 g/L; in experiment [1] (0.1 g/L in basal medium 3.1) it was 0.184 g/L; in experiment [1] (0.2 g/L in basal medium 3.1), 0.200 g/L; in experiment [1] (1.0 g/L in basal medium 3.1), 0.201 g/L; in experiment [3], 0.200 g/L. This molecule also yielded a titer in experiment [1] (1.0 g/L in basal medium 3.1) of 201 mg/L.
